Source: patent publication US8686184B2, “Neprilysin inhibitors” (Theravance, Inc., priority 2011, dated 2014)

The molecules below were run against T1, human neprilysin (EC 3.4.24.11; NEP) (Homo sapiens, UniProt P08473) (assay: In vitro enzyme inhibition assay at human NEP (fluorogenic peptide substrate)). Settings: recombinant human NEP; 37° C.; substrate Mca-D-Arg-Arg-Leu-Dap-(Dnp)-OH 10 μM; values given as ranges; read-out: pKi values at human NEP (converted).
T1 construct: purchased R&D Systems, Minneapolis, Minn; 1182-ZN
Format: biochemical
Experimental: In vitro Assays for the Quantitation of Inhibitor Potencies at Human and Rat NEP, and Human ACE
The inhibitory activities of compounds at human and rat neprilysin (EC 3.4.24.11; NEP) and human angiotensin converting enzyme (ACE) were determined using in vitro assays as described below.
Recombinant human NEP and recombinant human ACE were obtained commercially (R&D Systems, Minneapolis, Minn., catalog numbers 1182-ZN and 929-ZN, respectively). The fluorogenic peptide substrate Mca-D-Arg-Arg-Leu-Dap-(Dnp)-OH (Medeiros et al. (1997) Braz. J. Med. Biol. Res. 30:1157-62; Anaspec, San Jose, Calif.) and Abz-Phe-Arg-Lys(Dnp)-Pro-OH (Araujo et al. (2000) Biochemistry 39:8519-8525; Bachem, Torrance, Calif.) were used in the NEP and ACE assays respectively.
The assays were performed in 384-well white opaque plates at 37° C. using the fluorogenic peptide substrates at a concentration of 10 μM in Assay Buffer (NEP: 50 mM HEPES, pH 7.5, 100 mM NaCl, 0.01% polyethylene glycol sorbitan monolaurate (Tween-20), 10 μM ZnSO4; ACE: 50 mM HEPES, pH 7.5, 100 mM NaCl, 0.01% Tween-20, 1 μM ZnSO4).
Test compounds were assayed over the range of concentrations from 10 μM to 20 pM. Test compounds were added to the enzymes and incubated for 30 minute at 37° C. prior to initiating the reaction by the addition of substrate. Reactions were terminated after 20 minutes of incubation at 37° C. by the addition of glacial acetic acid to a final concentration of 3.6% (v/v).
Plates were read on a fluorometer with excitation and emission wavelengths set to 320 nm and 405 nm, respectively Inhibition constants were obtained by nonlinear regression of the data using the equation (GraphPad Software, Inc., San Diego, Calif.): v=v0/[1+(I/K′)] where v is the reaction rate, v0 is the uninhibited reaction rate, I is the inhibitor concentration and K′ is the apparent inhibition constant.
Compounds of the invention were tested in this assay and found to have pKi values at human NEP as follows.

T1 sequence (P08473 52-750 limits assumed): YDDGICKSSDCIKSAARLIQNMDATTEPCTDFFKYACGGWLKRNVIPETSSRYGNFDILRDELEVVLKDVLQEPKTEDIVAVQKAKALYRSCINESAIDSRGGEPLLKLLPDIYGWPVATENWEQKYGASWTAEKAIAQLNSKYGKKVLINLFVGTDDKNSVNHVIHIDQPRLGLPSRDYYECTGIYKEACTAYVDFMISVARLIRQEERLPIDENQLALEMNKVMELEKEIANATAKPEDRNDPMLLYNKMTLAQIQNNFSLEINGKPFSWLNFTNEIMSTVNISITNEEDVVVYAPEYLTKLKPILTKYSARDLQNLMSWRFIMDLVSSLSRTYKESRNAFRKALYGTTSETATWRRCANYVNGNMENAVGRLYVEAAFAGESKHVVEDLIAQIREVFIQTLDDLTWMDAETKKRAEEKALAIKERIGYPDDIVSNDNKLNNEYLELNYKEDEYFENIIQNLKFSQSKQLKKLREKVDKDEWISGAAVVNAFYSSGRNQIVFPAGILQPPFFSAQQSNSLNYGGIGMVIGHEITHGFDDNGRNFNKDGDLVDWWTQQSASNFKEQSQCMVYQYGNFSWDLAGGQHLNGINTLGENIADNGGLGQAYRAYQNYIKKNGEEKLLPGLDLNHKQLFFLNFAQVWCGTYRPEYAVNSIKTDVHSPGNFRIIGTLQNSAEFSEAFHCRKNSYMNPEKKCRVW

| SMILES | Ki [nM] |
| --- | --- |
| O=C(N[C@H](Cc1ccccc1)[C@@H](O)C(=O)O)c1cc(Cl)cc(-c2ccccc2C(=O)O)c1 [Example 10-26, 3′-((1R,2R)-1-Benzyl-2-carboxy-2-hydroxy-ethylcarbamoyl)-5′-chloro-biphenyl-2-carboxylic acid] | 1.26 to 10 |
| Cc1cc(C(=O)N[C@H](Cc2ccccc2)[C@@H](O)C(=O)O)cc(-c2ccccc2C(=O)O)c1 [Example 10-27, 3′-((1R,2R)-1-Benzyl-2-carboxy-2-hydroxy-ethylcarbamoyl)-5′-methyl-biphenyl-2-carboxylic acid] | 12.6 to 100 |
| O=C(N[C@H](Cc1ccccc1)[C@@H](O)C(=O)O)c1ccc(-c2ccccc2)c(C(=O)O)c1 [Example 10-28, 4-((1R,2R)-1-Benzyl-2-carboxy-2-hydroxy-ethylcarbamoyl)-biphenyl-2-carboxylic acid] | 12.6 to 100 |
| O=C(O)c1cc(C(=O)N[C@H](Cc2ccccc2)[C@@H](O)C(=O)O)cc(-c2ccccc2)c1 [Example 10-29, 5-((1R,2R)-1-Benzyl-2-carboxy-2-hydroxy-ethylcarbamoyl)-biphenyl-3-carboxylic acid] | 12.6 to 100 |
| NS(=O)(=O)c1cccc(-c2cccc(C(=O)N[C@H](Cc3ccccc3)[C@@H](O)C(=O)O)c2)c1 [Example 10-30, (2R,3R)-2-Hydroxy-4-phenyl-3-[(3′-sulfamoyl-biphenyl-3-carbonyl)-amino]-butyric acid] | 12.6 to 100 |
| O=C(N[C@H](Cc1ccccc1)[C@@H](O)C(=O)O)c1cccc(-c2cccc(-c3nnn[nH]3)c2)c1 [Example 10-31, (2R,3R)-2-Hydroxy-4-phenyl-3-{[3′-(1H-tetrazol-5-yl)-biphenyl-3-carbonyl]-amino}-butyric acid] | 12.6 to 100 |
| CCc1ccc(C(=O)N[C@H](Cc2ccccc2)[C@@H](O)C(=O)O)cc1 [Example 10-32, (2R,3R)-3-(4-Ethyl-benzoylamino)-2-hydroxy-4-phenyl-butyric acid] | 12.6 to 100 |
| CCCc1ccc(C(=O)N[C@H](Cc2ccccc2)[C@@H](O)C(=O)O)cc1 [Example 10-33, (2R,3R)-2-Hydroxy-4-phenyl-3-(4-propyl-benzoylamino)-butyric acid] | 12.6 to 100 |
| CC(C)c1ccc(C(=O)N[C@H](Cc2ccccc2)[C@@H](O)C(=O)O)cc1 [Example 10-34, (2R,3R)-2-Hydroxy-3-(4-isopropyl-benzoylamino)-4-phenyl-butyric acid] | 12.6 to 100 |
| CCCCc1ccc(C(=O)N[C@H](Cc2ccccc2)[C@@H](O)C(=O)O)cc1 [Example 10-35, (2R,3R)-3-(4-Butyl-benzoylamino)-2-hydroxy-4-phenyl-butyric acid] | 12.6 to 100 |
| CC(C)Cc1ccc(C(=O)N[C@H](Cc2ccccc2)[C@@H](O)C(=O)O)cc1 [Example 10-36, (2R,3R)-2-Hydroxy-3-(4-isobutyl-benzoylamino)-4-phenyl-butyric acid] | 12.6 to 100 |
| CCCCCc1ccc(C(=O)N[C@H](Cc2ccccc2)[C@@H](O)C(=O)O)cc1 [Example 10-38, (2R,3R)-2-Hydroxy-3-(4-pentyl-benzoylamino)-4-phenyl-butyric acid] | 12.6 to 100 |
| O=C(N[C@H](Cc1ccccc1)[C@@H](O)C(=O)O)c1ccc(C2CC2)cc1 [Example 10-39, (2R,3R)-3-(4-Cyclopropyl-benzoylamino)-2-hydroxy-4-phenyl-butyric acid] | 12.6 to 100 |
| O=C(N[C@H](Cc1ccccc1)[C@@H](O)C(=O)O)c1ccc(C2CCCCC2)cc1 [Example 10-40, (2R,3R)-3-(4-Cyclohexyl-benzoylamino)-2-hydroxy-4-phenyl-butyric acid] | 12.6 to 100 |
| CC1=NN(c2ccc(C(=O)N[C@H](Cc3ccccc3)[C@@H](O)C(=O)O)cc2)C(=O)C1 [Example 10-41, (2R,3R)-2-Hydroxy-3-[4-(3-methyl-5-oxo-4,5-dihydro-pyrazol-1-yl)-benzoylamino]-4-phenyl-butyric acid] | 12.6 to 100 |
| O=C(N[C@H](Cc1ccccc1)[C@@H](O)C(=O)O)c1ccc(-n2cccc2)cc1 [Example 10-43, (2R,3R)-2-Hydroxy-4-phenyl-3-(4-pyrrol-1-yl-benzoylamino)-butyric acid] | 12.6 to 100 |
| O=C(N[C@H](Cc1ccccc1)[C@@H](O)C(=O)O)c1ccc(Cn2cccc2)cc1 [Example 10-44, (2R,3R)-2-Hydroxy-4-phenyl-3-(4-pyrrol-1-ylmethyl-benzoylamino)-butyric acid] | 12.6 to 100 |

| SMILES | Ki [nM] |
| --- | --- |
| Cc1nnnn1Cc1ccc(C(=O)N[C@H](Cc2ccccc2)[C@@H](O)C(=O)O)cc1 [Example 10-45, (2R,3R)-2-Hydroxy-3-[4-(5-methyl-tetrazol-1-ylmethyl)-benzoylamino]-4-phenyl-butyric acid] | 12.6 to 100 |
| O=C(N[C@H](Cc1ccccc1)[C@@H](O)C(=O)O)c1ccc(Cn2ccnc2)cc1 [Example 10-46, (2R,3R)-2-Hydroxy-3-(4-imidazol-1-ylmethyl-benzoylamino)-4-phenyl-butyric acid] | 12.6 to 100 |
| O=C(N[C@H](Cc1ccccc1)[C@@H](O)C(=O)O)c1ccc(CCn2ccnc2)cc1 [Example 10-47, (2R,3R)-2-Hydroxy-3-[4-(2-imidazol-1-yl-ethyl)-benzoylamino]-4-phenyl-butyric acid] | 12.6 to 100 |
| O=C(O)Cc1ccccc1-c1ccc(C(=O)N[C@H](Cc2ccccc2)[C@@H](O)C(=O)O)cc1 [Example 10-48, (2R,3R)-3-[(2′-Carboxymethyl-biphenyl-4-carbonyl)-amino]-2-hydroxy-4-phenyl-butyric acid] | 1.26 to 10 |
| O=C(O)Cc1cccc(-c2ccc(C(=O)N[C@H](Cc3ccccc3)[C@@H](O)C(=O)O)cc2)c1 [Example 10-49, (2R,3R)-3-[(3′-Carboxymethyl-biphenyl-4-carbonyl)-amino]-2-hydroxy-4-phenyl-butyric acid] | 12.6 to 100 |
| O=C(O)Cc1ccc(-c2ccc(C(=O)N[C@H](Cc3ccccc3)[C@@H](O)C(=O)O)cc2)cc1 [Example 10-50, (2R,3R)-3-[(4′-Carboxymethyl-biphenyl-4-carbonyl)-amino]-2-hydroxy-4-phenyl-butyric acid] | 12.6 to 100 |
| O=C(O)c1cccc(-c2ccc(C(=O)N[C@H](Cc3ccccc3)[C@@H](O)C(=O)O)cc2)c1 [Example 10-51, 4′-((1R,2R)-1-Benzyl-2-carboxy-2-hydroxy-ethylcarbamoyl)-biphenyl-3-carboxylic acid] | 12.6 to 100 |
| O=C(Nc1ccc(C(=O)N[C@H](Cc2ccccc2)[C@@H](O)C(=O)O)cc1)Nc1sccc1C(=O)O [Example 10-52] | 12.6 to 100 |
| Cc1cc(C(=O)O)c(NC(=O)Nc2ccc(C(=O)N[C@H](Cc3ccccc3)[C@@H](O)C(=O)O)cc2)s1 [Example 10-53] | 12.6 to 100 |
| Cc1ccc(C(=O)N[C@H](Cc2ccccc2)[C@@H](O)C(=O)O)cc1Br [Example 10-54, (2R,3R)-3-(3-Bromo-4-methyl-benzoylamino)-2-hydroxy-4-phenyl-butyric acid] | 12.6 to 100 |
| CC(C)c1ccc(C(=O)N[C@H](Cc2ccccc2)[C@@H](O)C(=O)O)cc1Br [Example 10-55, (2R,3R)-3-(3-Bromo-4-isopropyl-benzoylamino)-2-hydroxy-4-phenyl-butyric acid] | 12.6 to 100 |
| CCCNc1ccc(C(=O)N[C@H](Cc2ccccc2)[C@@H](O)C(=O)O)cc1Cl [Example 10-56, (2R,3R)-3-(3-Chloro-4-propylamino-benzoylamino)-2-hydroxy-4-phenyl-butyric acid] | 12.6 to 100 |
| Cc1cc(C(=O)N[C@H](Cc2ccccc2)[C@@H](O)C(=O)O)ccc1-n1c(C)cc(C=O)c1C [Example 10-57, (2R,3R)-3-[4-(3-Formyl-2,5-dimethyl-pyrrol-1-yl)-3-methyl-benzoylamino]-2-hydroxy-4-phenyl-butyric acid] | 12.6 to 100 |
| Cc1cc(C(=O)N[C@H](Cc2ccccc2)[C@@H](O)C(=O)O)ccc1-n1cccc1 [Example 10-58, (2R,3R)-2-Hydroxy-3-(3-methyl-4-pyrrol-1-yl-benzoylamino)-4-phenyl-butyric acid] | 12.6 to 100 |
| O=C(O)CCc1cccc(C(=O)N[C@H](Cc2ccccc2)[C@@H](O)C(=O)O)c1 [Example 10-59, (2R,3R)-3-[3-(2-Carboxy-ethyl)-benzoylamino]-2-hydroxy-4-phenyl-butyric acid] | 12.6 to 100 |
| CCCC1=NN(c2cccc(C(=O)N[C@H](Cc3ccccc3)[C@@H](O)C(=O)O)c2)C(=O)C1 [Example 10-60, (2R,3R)-2-Hydroxy-3-[3-(5-oxo-3-propyl-4,5-dihydro-pyrazol-1-yl)-benzoylamino]-4-phenyl-butyric acid] | 12.6 to 100 |
| Cc1ccc(C(=O)N[C@H](Cc2ccccc2)[C@@H](O)C(=O)O)cc1-c1ccc(C(=O)O)cc1 [Example 10-61, 5′-((1R,2R)-1-Benzyl-2-carboxy-2-hydroxy-ethylcarbamoyl)-2′-methyl-biphenyl-4-carboxylic acid] | 12.6 to 100 |
